Assay results published in patent publication US12655090B2, “Cyclopropylamide compounds against parasites in fish” (Intervet Inc., priority 2021, dated 2026).
Like-named read-outs stand apart in the source and are kept apart here.

Columns and labels:
[1] = system: multiresistant Lepeophtheirus salmonis isolate (resistant to azametiphos, emamectin benzoate, deltamethrin), mobile sea lice stages; assay: Sea lice resistance assay, multi-resistant isolate
Protocol: (§1) A sea lice resistance assay was carried out using mobile sea lice stages (i.e., pre-adults, adults) of several Lepeophtheirus salmonis-isolates with known resistance profiles (i.e., fully susceptible or multiresistant (resistant to azametiphos (OP), emamectin benzoate (ML), deltamethrin (SP)). Sea lice were exposed to seawater spiked with declining concentrations of a test compound (dissolved in a PEG300/sea-water mixture). Sea lice inhibition (% of dead+damaged sea lice) was assessed after approximately 24 and 48 hours of continuous exposure in comparison to a negative (solvent) control group.

[2] = system: Mobile stages of sea lice (pre-adults, adults of Lepeophtheirus salmonis); assay: Adult sea lice contact assay; conditions: assessed after approximately 1 and 24 hours of continuous exposure, read-out: EC50 (sea lice inhibition, dead+damaged sea lice)
Protocol: Mobile stages of sea lice (i.e., pre-adults, adults of Lepeophtheirus salmonis) were exposed to seawater spiked with declining concentrations of a test compound (dissolved in a PEG sea-water mixture). Sea lice inhibition (% of dead+damaged sea lice) was assessed after approximately 1 and 24 hours of continuous exposure in comparison to a negative (solvent) control group.

[3] = system: Copepodids (juvenile sea lice stage of Lepeophtheirus salmonis); assay: Juvenile sea lice contact assay; conditions: approximately 24 hours continuous exposure in seawater, read-out: Sea lice inhibition (% of dead+damaged copepodids)
Protocol: Copepodids (juvenile sea lice stage of Lepeophtheirus salmonis) were exposed to seawater spiked with declining concentrations of a test compound (dissolved in a DMSO sea-water mixture). Sea lice inhibition (% of dead+damaged copepodids) was assessed after approximately 24 hours of continuous exposure. The vitality of used parasites was confirmed in a negative (solvent) control group.

[4] = system: fully susceptible Lepeophtheirus salmonis isolate, mobile sea lice stages; assay: Sea lice resistance assay, sensitive isolate
Protocol: as §1

[5] = system: Lepeophtheirus salmonis sea lice on salmon (Salmo salar); assay: Salmon in vivo efficacy trial using in-feed administration; conditions: 1 mg/kg fish biomass via coated feed for 7 consecutive days; for therapeutic efficacy against juvenile sea lice: day -3 infestation, counted around day 25; for therapeutic efficacy against (pre-)adult sea lice: day -28 infestation, counted around day 8
Protocol: Commercial fish feed pellets were coated with formulated test compound. As formulation DMSO 5%/fish oil 95% was used. Salmon (Salmo salar) were treated orally with 1 mg/kg fish biomass via coated feed for 7 consecutive days. Salmon of the negative control groups received only feed coated with the excipients of the formulation. Fish of the therapeutic groups were infested with Lepeophtheirus salmonis copepodids twice before treatment (around day −28 and day −3).

[6] = system: Lepeophtheirus salmonis sea lice on salmon (Salmo salar); assay: Salmon in vivo efficacy trial using gavage administration; conditions: po
Protocol: Salmon (Salmo salar) were treated once orally by gavage at a dose of 5 mg/kg bodyweight per fish (Day 0). As formulation DMSO 5%/fish oil 95% was used. Salmon of the negative control group received only the excipients of the formulation. The fish were infested with Lepeophtheirus salmonis copepodids twice before treatment (i.e., around day −28 and day −3) and once after treatment (i.e., day 17). […] Around day 28 (end of animal phase), fish were euthanized, and lice on each fish were classified ((pre-)adult or juvenile stage) and counted. […] Efficacy is expressed as a % reduction of sea lice in treated groups versus a control group, using the Abbott's formula.

[7] = 168 h, read-out: therapeutic efficacy against (pre-)adult sea lice (% reduction vs control, Abbott's formula), once orally by gavage 5 mg/kg bodyweight, day -28 infestation, counted at day 7
[8] = 672 h, read-out: prophylactic efficacy at re-infestation on Day 17 (% reduction vs control, Abbott's formula), once orally by gavage 5 mg/kg bodyweight, re-infestation day 17, counted around day 28
[9] = 672 h, read-out: therapeutic efficacy against juvenile sea lice (% reduction vs control, Abbott's formula), once orally by gavage 5 mg/kg bodyweight, day -3 infestation, counted around day 28

With N#CC1(NC(=O)c2cc(NC(=O)[C@H]3[C@H](c4cc(Cl)cc(Cl)c4)C3(Cl)Cl)ccc2Cl)CC1 [Compound 1590] the EC50 ([1]; after 24 hours) was 3.75 ppb, the EC50 ([1]; after 48 hours) was 0.58 ppb and the EC50 [2] was no more than 1 nM. It also gave an inhibition at 0.001 µM ([3]; test concentration 1 nM) of 80%, an EC50 ([4]; after 24 hours) of 4.12 ppb and an EC50 ([4]; after 48 hours) of 0.40 ppb. The “therapeutic efficacy against juvenile sea lice” value [5] was 100%, the “therapeutic efficacy against (pre-)adult sea lice” value [5] was 100% and the “prophylactic efficacy against re-infestation after treatment (D14)” value [5] was 100%. For the same compound, the “prophylactic efficacy against re-infestation after treatment (D28)” value [5] was 79.2%, the inhibition in vivo at 5 mg/kg [6, 7] was 100% and the inhibition in vivo at 5 mg/kg [6, 8] was 80%. The inhibition in vivo at 5 mg/kg [6, 9] was 80%.
In the case of N#CC1(NC(=O)c2cc(NC(=O)[C@H]3[C@H](c4cc(Cl)cc(Cl)c4)C3(Cl)Cl)cc(F)c2F)CC1 [Compound 1594], the EC50 [2] is reported as no more than 1 nM, the inhibition at 0.0001 µM ([3]; test concentration 0.1 nM) is reported as 80% and the “therapeutic efficacy against juvenile sea lice” value [5] is reported as 100%. The “therapeutic efficacy against (pre-)adult sea lice” value [5] was 100%, the “prophylactic efficacy against re-infestation after treatment (D14)” value [5] was 100% and the “prophylactic efficacy against re-infestation after treatment (D28)” value [5] was 100%. For the same compound, the inhibition in vivo at 5 mg/kg [6, 7] was 100%, the inhibition in vivo at 5 mg/kg [6, 8] was 100% and the inhibition in vivo at 5 mg/kg [6, 9] was 100%.
